Results on 47 compounds are retold here after the Biogen ADME set (Fang et al. 2023).

SMILES strings stand for the structures. In brackets after ≈: the same amount, converted by molar mass. A value given as a limit tells only on which side of the number the result lay.

The conditions of this data set: for aqueous solubility: pH 6.8.

As to `CN1C(=O)c2ccc(C(=O)N(CC3CCCCC3)C3CC3)cc2C1=O`, the intrinsic clearance, human liver microsomes was determined as 123 mL/min/kg and the intrinsic clearance, rat liver microsomes was 2600 mL/min/kg.
What is called aqueous solubility is how much of the substance goes into solution per volume. A lower aqueous solubility goes with little dissolved substance. Turning to `Cc1cc(C(=O)Nc2cccc(-c3cnco3)c2)c2c(C)nn(C)c2n1`, the MDR1-MDCK efflux ratio is 1.08; the intrinsic clearance, human liver microsomes amounted to 29 mL/min/kg; the intrinsic clearance, rat liver microsomes stood at 75.1 mL/min/kg; the aqueous solubility came out at 8.73 µg/mL (≈ 25.1 µM).
For `O=C(Nc1nccs1)C1CCN(C(=O)CN2CCc3ccccc32)CC1`, the MDR1-MDCK efflux ratio came to 24.4; the intrinsic clearance, human liver microsomes came to 33.2 mL/min/kg; the intrinsic clearance, rat liver microsomes came to 394 mL/min/kg; the aqueous solubility was 51.4 µg/mL (≈ 139 µM).
As to `CN1CC(=O)N(CCCC(=O)Nc2cccc(C#Cc3cccs3)c2)C1=O`, the MDR1-MDCK efflux ratio was determined as 4.28; the intrinsic clearance, human liver microsomes was 19.7 mL/min/kg; the intrinsic clearance, rat liver microsomes came out at 738 mL/min/kg; the aqueous solubility came out at 43.2 µg/mL (≈ 113 µM).
`CC1(C)CC(Oc2ccc(-c3ccc(-c4cn[nH]c4)cc3O)nn2)CC(C)(C)N1` registered an aqueous solubility of 12.9 µg/mL (≈ 32.8 µM).
With `COc1ccc(C)cc1-c1cccnc1O`, the MDR1-MDCK efflux ratio came out at 1.08; the intrinsic clearance, human liver microsomes is 5.37 mL/min/kg; the intrinsic clearance, rat liver microsomes came to 26.5 mL/min/kg; the aqueous solubility was 32.8 µg/mL (≈ 152 µM).
With `CN(CC(=O)Nc1cccc(S(=O)(=O)N2CCCC2)c1)C1CCCCC1`, the MDR1-MDCK efflux ratio worked out at 2.29; the intrinsic clearance, human liver microsomes was found to be 601 mL/min/kg; the intrinsic clearance, rat liver microsomes was found to be 2980 mL/min/kg.
For `Cc1nc(C)c(C)c(NCc2cc(-c3ccc(F)cc3)no2)n1`, the MDR1-MDCK efflux ratio is 0.906; the intrinsic clearance, human liver microsomes came out at 20.3 mL/min/kg; the intrinsic clearance, rat liver microsomes came out at 242 mL/min/kg; the aqueous solubility came out at 37.5 µg/mL (≈ 120 µM).
On to `Cc1nn(C)c(C)c1CCC(=O)N1CCN(C)Cc2ccccc21`, for which the MDR1-MDCK efflux ratio is 45.8; the intrinsic clearance, human liver microsomes stood at 74.2 mL/min/kg; the intrinsic clearance, rat liver microsomes is 279 mL/min/kg; the aqueous solubility came to 53 µg/mL (≈ 162 µM).
As to `COc1cccc(CC(=O)N2CCOC(c3cc(Nc4nnc(C)s4)cc(C)n3)C2)c1` (centres undefined), the MDR1-MDCK efflux ratio amounted to 10.7; the intrinsic clearance, human liver microsomes worked out at 68.6 mL/min/kg; the intrinsic clearance, rat liver microsomes was found to be 308 mL/min/kg.
With `N#CCc1ccc(NC(=O)C2CC2)cc1`, the aqueous solubility was 30.6 µg/mL (≈ 153 µM).
Turning to `Cc1noc(COc2cccnc2C)n1`, the MDR1-MDCK efflux ratio stood at 0.706; the intrinsic clearance, human liver microsomes was ≤ 4.74 mL/min/kg; the intrinsic clearance, rat liver microsomes is 23.6 mL/min/kg.
`C#CCNC(=O)c1cc(C(C)C)nn1CC`: the MDR1-MDCK efflux ratio worked out at 0.855; the intrinsic clearance, human liver microsomes was ≤ 4.74 mL/min/kg; the intrinsic clearance, rat liver microsomes is 12.4 mL/min/kg; the aqueous solubility came out at 28.4 µg/mL (≈ 130 µM).
Take `CCOCC(=O)NCc1cc(C2CC2)n(C2CCCC2)n1`: the MDR1-MDCK efflux ratio was 0.768; the intrinsic clearance, human liver microsomes stood at 21.9 mL/min/kg; the intrinsic clearance, rat liver microsomes stood at 264 mL/min/kg; the aqueous solubility stood at 37.9 µg/mL (≈ 130 µM).
In the case of `Cc1cccc(OC2CCN(CC(N)=O)CC2)c1`, the MDR1-MDCK efflux ratio turned out to be 0.636; the intrinsic clearance, human liver microsomes is ≤ 4.74 mL/min/kg; the intrinsic clearance, rat liver microsomes is 67.2 mL/min/kg; the aqueous solubility came to 79 µg/mL (≈ 318 µM).
`CCc1nc2ccccc2n1CC(=O)N1CCNC(=O)C1`: the MDR1-MDCK efflux ratio was 3.86; the intrinsic clearance, human liver microsomes was ≤ 4.74 mL/min/kg; the intrinsic clearance, rat liver microsomes was ≤ 10.7 mL/min/kg; the aqueous solubility is 50.6 µg/mL (≈ 177 µM).
With `CN(CCn1cnc(C#N)c1C#N)c1ccccc1`, the MDR1-MDCK efflux ratio worked out at 0.634; the intrinsic clearance, human liver microsomes came out at 52.4 mL/min/kg; the intrinsic clearance, rat liver microsomes was determined as 1060 mL/min/kg.
For the compound `NC(=O)COc1ccccc1C(=O)Nc1cccc(-c2ccc3ccccc3c2)n1`, the MDR1-MDCK efflux ratio worked out at 0.296; the intrinsic clearance, human liver microsomes was 54.8 mL/min/kg; the intrinsic clearance, rat liver microsomes worked out at 1060 mL/min/kg.
In the case of `Cc1ccc(O)c(CN2CCC(c3nc4ccccc4o3)CC2)n1`, the MDR1-MDCK efflux ratio came to 0.688; the intrinsic clearance, human liver microsomes came to 22.2 mL/min/kg; the intrinsic clearance, rat liver microsomes was found to be 229 mL/min/kg.
On to `CC(C)(O)CNc1nc(Nc2ccnc(C(F)(F)F)c2)nc(-c2cccc(C(F)(F)F)n2)n1`, for which the MDR1-MDCK efflux ratio was determined as 24.8 and the aqueous solubility was 0.14 µg/mL (≈ 0.296 µM).
As for `COCC(=O)Nc1nc(C)c(C)s1`, the MDR1-MDCK efflux ratio was 0.659; the intrinsic clearance, human liver microsomes was 18.9 mL/min/kg; the intrinsic clearance, rat liver microsomes was 71.3 mL/min/kg; the aqueous solubility is 25.6 µg/mL (≈ 128 µM).
Taken in the same sequence, the figures for `O=C(NC1CC1)c1cccc2cccnc12` were 0.708, 5.23 mL/min/kg, 31.3 mL/min/kg and 33.8 µg/mL (≈ 159 µM).
On to `CC(C)(O)CCn1cc2cc(NC(=O)c3ccn(C(F)F)n3)c(OCC3COC3)cc2n1`, for which the MDR1-MDCK efflux ratio was 11.8; the intrinsic clearance, human liver microsomes is ≤ 4.74 mL/min/kg; the intrinsic clearance, rat liver microsomes was 13.3 mL/min/kg.
As to `c1cc2c(N3CCNCC3)nc(-c3ccnc(NC4CCCCC4)c3)cc2cn1`, the MDR1-MDCK efflux ratio was 26.5; the intrinsic clearance, human liver microsomes stood at 68.7 mL/min/kg; the intrinsic clearance, rat liver microsomes amounted to 260 mL/min/kg; the aqueous solubility turned out to be 39.9 µg/mL (≈ 103 µM).
As for `CC(C)(C(=O)c1ccccc1)/[N+]([O-])=C/c1ccc(F)cc1`, the MDR1-MDCK efflux ratio came to 0.68; the intrinsic clearance, human liver microsomes was 7.63 mL/min/kg; the intrinsic clearance, rat liver microsomes came out at 61.4 mL/min/kg.
Turning to `CC(C)CCNC(=O)CSc1nc2ccccc2[nH]1`, the MDR1-MDCK efflux ratio came out at 3.98; the intrinsic clearance, human liver microsomes was 114 mL/min/kg; the intrinsic clearance, rat liver microsomes was 1110 mL/min/kg.
`Cc1[nH]ncc1-c1nn2c(Cc3ccccc3Cl)nnc2s1`: the aqueous solubility came out at 4.18 µg/mL (≈ 12.6 µM).
For the compound `[2H]c1nc(C)nc([2H])c1-c1cc(NC[C@@H](C)c2cccc3c(C(=O)NC)ccnc23)ncn1`, the MDR1-MDCK efflux ratio stood at 106; the intrinsic clearance, human liver microsomes came out at 5.41 mL/min/kg; the intrinsic clearance, rat liver microsomes was found to be 88.5 mL/min/kg.
For the compound `CNC(=O)c1cn(C)nc1CC1CCN(Cc2cnc(-c3ccc(OC)cc3)nc2)CC1`, the MDR1-MDCK efflux ratio was 20.6; the intrinsic clearance, human liver microsomes is ≤ 4.74 mL/min/kg; the intrinsic clearance, rat liver microsomes came to 23.9 mL/min/kg; the aqueous solubility is 57.5 µg/mL (≈ 132 µM).
With `CCOC(=O)Nc1cc(-c2ccc(C)c(NS(C)(=O)=O)c2)nn2c(C)nnc12`, the MDR1-MDCK efflux ratio was found to be 28.4; the intrinsic clearance, human liver microsomes was 7.01 mL/min/kg; the intrinsic clearance, rat liver microsomes was 124 mL/min/kg; the aqueous solubility is 51.4 µg/mL (≈ 127 µM).
In the case of `C[C@@H](CN1CCC2(CC1)C(=O)NCN2c1cccc(F)c1)NC(=O)c1ccc(Br)cc1`, the intrinsic clearance, human liver microsomes was determined as 88.8 mL/min/kg; the intrinsic clearance, rat liver microsomes was 312 mL/min/kg; the aqueous solubility worked out at 3.85 µg/mL (≈ 7.87 µM).
Take `Cc1cccn(Cc2ccccc2F)c1=O`: the MDR1-MDCK efflux ratio is 0.634; the intrinsic clearance, human liver microsomes was ≤ 4.74 mL/min/kg; the intrinsic clearance, rat liver microsomes stood at 60.7 mL/min/kg; the aqueous solubility amounted to 28.2 µg/mL (≈ 130 µM).
Turning to `Cc1cc(C)n2nc(C)c(C(=O)NCCc3nnc(C)s3)c2n1`, the MDR1-MDCK efflux ratio was found to be 6.5; the intrinsic clearance, human liver microsomes was ≤ 4.74 mL/min/kg; the intrinsic clearance, rat liver microsomes amounted to 33.1 mL/min/kg.
Compound `NCCN1CCN(C/C=C/C(=O)N2CCC[C@@H](n3nc(-c4ccc(Oc5ccccc5)cc4)c4c(N)ncnc43)C2)CC1` displayed a fraction unbound, human plasma of 0.0501; a fraction unbound, rat plasma of 0.0486; an intrinsic clearance, human liver microsomes of 9.07 mL/min/kg; an intrinsic clearance, rat liver microsomes of 49.8 mL/min/kg. The aqueous solubility amounted to 30.2 µg/mL (≈ 51.9 µM).
Take `CCCN(C(=O)c1c(CC)noc1C)C1Cc2ccccc2C1`: the MDR1-MDCK efflux ratio stood at 0.947; the intrinsic clearance, human liver microsomes came out at 182 mL/min/kg; the intrinsic clearance, rat liver microsomes was 2380 mL/min/kg; the aqueous solubility came to 37.3 µg/mL (≈ 119 µM).
On to `CC(C)(C)c1csc(NC(=O)C2CC2)n1`, for which the MDR1-MDCK efflux ratio stood at 0.634; the intrinsic clearance, human liver microsomes turned out to be 20.2 mL/min/kg; the intrinsic clearance, rat liver microsomes came out at 89 mL/min/kg; the aqueous solubility is 29.2 µg/mL (≈ 130 µM).
Consider `CN(c1nc2ccccc2o1)C1CCN(C2CCOCC2)CC1`, for which the intrinsic clearance, human liver microsomes came out at 438 mL/min/kg and the intrinsic clearance, rat liver microsomes amounted to 117 mL/min/kg.
On to `O=C(c1cc(Oc2cccc(F)c2)nc2ccccc12)N1CCOCC1`, for which the aqueous solubility came out at 16.1 µg/mL (≈ 45.7 µM).
As for `CCc1cnc(C)nc1-c1ccc(-c2ccn[nH]2)cc1`, the MDR1-MDCK efflux ratio was determined as 0.85; the intrinsic clearance, human liver microsomes was ≤ 4.74 mL/min/kg; the intrinsic clearance, rat liver microsomes was found to be 75 mL/min/kg; the aqueous solubility is 20.7 µg/mL (≈ 78.5 µM).
`Cc1cccc2cc(C(N)=S)/c(=N/Nc3ccccc3)oc12`: the aqueous solubility is 0.48 µg/mL (≈ 1.55 µM).
For `COc1ccc(C(=O)C2CCN(CC(=O)N(Cc3nc4c(c(=O)[nH]3)COCC4)CC3CC3)CC2)cc1`, the MDR1-MDCK efflux ratio was found to be 53.8; the intrinsic clearance, human liver microsomes is 10.9 mL/min/kg; the intrinsic clearance, rat liver microsomes came to 45.5 mL/min/kg; the aqueous solubility was 94.5 µg/mL (≈ 191 µM).
In the case of `Nc1nc2c(N)ncnc2[nH]1`, the aqueous solubility stood at 17.8 µg/mL (≈ 119 µM).
On to `Cc1nnc2ncc(-c3cccc(-c4ccnn4C)c3)cn12`, for which the MDR1-MDCK efflux ratio was 0.929; the intrinsic clearance, human liver microsomes is ≤ 4.74 mL/min/kg; the intrinsic clearance, rat liver microsomes turned out to be 31 mL/min/kg.
With `CCN(Cc1cnn(C(C)C)c1)C(=O)NCCC(C)(C)OC`, the MDR1-MDCK efflux ratio came to 17.2; the intrinsic clearance, human liver microsomes amounted to 5.64 mL/min/kg; the intrinsic clearance, rat liver microsomes is 163 mL/min/kg.
As for `COCCc1nc(-c2cnc(C3CC3)nc2)n(Cc2ccc(F)cc2)n1`, the MDR1-MDCK efflux ratio was determined as 1.51; the intrinsic clearance, human liver microsomes is 8.05 mL/min/kg; the intrinsic clearance, rat liver microsomes was found to be 1030 mL/min/kg; the aqueous solubility came out at 34.1 µg/mL (≈ 96.4 µM).
`Cc1cc(CNc2ncc(C(F)(F)F)cc2Cl)no1`: the MDR1-MDCK efflux ratio turned out to be 0.601; the intrinsic clearance, human liver microsomes amounted to 64.6 mL/min/kg; the intrinsic clearance, rat liver microsomes was determined as 128 mL/min/kg; the aqueous solubility amounted to 26.8 µg/mL (≈ 92 µM).
For the compound `Cc1ccc(-n2nc(C(C)(C)C)cc2NC(=O)NCc2cc(F)ccc2Oc2ccc3c(cnn3CCO)c2)cc1`, the MDR1-MDCK efflux ratio was 16.2 and the aqueous solubility was 0.2 µg/mL (≈ 0.359 µM).
